Results from patent US20230339970A1, “CASEIN KINASE 1 DELTA MODULATORS” (priority 2020, published 2023).

How the values were obtained:
human CSNK1D = molecular target: T1, human CSNK1D (Homo sapiens, UniProt P48730); assay: Whole Cell nBRET CSNK1D Binding Assay; conditions: living CHO cells stably expressing human CSNK1D tagged with nanoluciferase; NanoBret tracer 130 nM; 2 hours at 37 C
T1 construct: expressed in transfected cells

[1] = molecular target: T2, human recombinant GST cleaved CSNK1D (Homo sapiens, UniProt P48730); assay: Purified Enzyme Assay (ADP-Glo CSNK1D Kinase Assay); assay type: biochemical; conditions: 2 nM CSNK1D; peptide substrate 150 μM; ATP 20 μM; 45 minutes at room temperature
T2 construct: GST (cleaved yes); purchased University of Dundee clone DU 19064
T2 sequence (P48730 whole entry): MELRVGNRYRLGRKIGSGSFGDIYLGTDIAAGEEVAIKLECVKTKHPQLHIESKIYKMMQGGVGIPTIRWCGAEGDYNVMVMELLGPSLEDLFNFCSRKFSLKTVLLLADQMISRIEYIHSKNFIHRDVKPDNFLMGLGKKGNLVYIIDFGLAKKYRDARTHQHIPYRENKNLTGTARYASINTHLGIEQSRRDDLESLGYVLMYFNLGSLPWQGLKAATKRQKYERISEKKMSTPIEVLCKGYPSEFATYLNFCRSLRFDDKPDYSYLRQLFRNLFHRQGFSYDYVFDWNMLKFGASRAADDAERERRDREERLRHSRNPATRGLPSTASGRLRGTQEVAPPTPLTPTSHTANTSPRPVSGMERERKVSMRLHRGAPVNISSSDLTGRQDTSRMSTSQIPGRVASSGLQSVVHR
Procedure: In this assay, CSNK1D phosphorylates a substrate peptide PLSRTL-pS-VASLPGL in the presence of ATP. […] This assay monitors CSNK1D kinase activity by measuring the amount of ADP produced in the assay.
The substrate mix is added to each well of a low volume, 384-well, white opaque plate. Test compounds were diluted in HBSS and added in a dose-response to the plate.
The total volume of each reaction is 5 ul (2 μL of substrate mix, 1 μL of diluted compounds, and 2 μL of human recombinant CSNK1D). The plates are incubated for 45 minutes at room temperature.
ADP was quantified using the ADP-Glo™ Kinase Assay. ADP-Glo Reagent (5 μL) was added to each well. After a 1 hour incubation at room temperature, Kinase Detection Reagent (10 μL) was added to each well and incubated for 30 minutes. […] The raw data from the Envision is used to calculate percent activity.

T1 sequence (P48730 whole entry): as above

| IC50 (human CSNK1D) [nM] | IC50 [1] [nM] | Compound |
| --- | --- | --- |
| 85 | 4 | Fc1ccc(-c2nn3c(c2-c2c(F)cnc4[nH]ncc24)CC[C@H]2[C@@H]3C2(F)F)nc1 (single isomer, unassigned) [Example 358, (5a*S,6a*R)-6,6-difluoro-3-(5-fluoro-1H-pyrazolo[3,4-b]pyridin-4-yl)-2-(5-fluoropyridin-2-yl)-5,5a,6,6a-tetrahydro-4H-cyclopropa[e]pyrazolo[1,5-a]pyridine] |
| 31 | 4 | COC[C@]1(F)CCc2c(-c3cc(C)nc4[nH]ncc34)c(-c3ccc(F)cn3)nn2C1 (single isomer, unassigned) [Example 53, (*S)-4-(6-Fluoro-2-(5-fluoropyridin-2-yl)-6-(methoxymethyl)-4,5,6,7-tetrahydropyrazolo[1,5-a]pyridin-3-yl)-6-methyl-1H-pyrazolo[3,4-b]pyridine] |
| 77 | 8 | Fc1ccc(-c2nn3c(c2-c2c(F)cnc4[nH]ccc24)CCCC3)nc1 [Example 34, 5-Fluoro-4-[2-(5-fluoro-2-pyridyl)-4,5,6,7-tetrahydropyrazolo[1,5-a]pyridin-3-yl]-1H-pyrrolo[2,3-b]pyridine] |
| 12 | 1 | Cc1cc(-c2c(-c3ccc(F)cc3)nn3c2CC[C@@H]3C)c2cn[nH]c2n1 [Example 17, 4-[(6S)-2-(4-Fluorophenyl)-6-methyl-5,6-dihydro-4H-pyrrolo[1,2-b]pyrazol-3-yl]-6-methyl-1H-pyrazolo[3,4-b]pyridine] |
| 60 | 12 | Cc1nc2[nH]ncc2c(-c2c(-c3ccc(F)cn3)nn3c2CCC3)c1F [Example 9, 5-Fluoro-4-(2-(5-fluoropyridin-2-yl)-5,6-dihydro-4H-pyrrolo[1,2-b]pyrazol-3-yl)-6-methyl-1H-pyrazolo[3,4-b]pyridine] |
| 19 | 2 | Cc1nc2[nH]ncc2c(-c2c(-c3ccc(F)cn3)nn3c2CC(C)(C)C3)c1F [Example 240, 5-Fluoro-4-[2-(5-fluoro-2-pyridyl)-5,5-dimethyl-4,6-dihydropyrrolo[1,2-b]pyrazol-3-yl]-6-methyl-1H-pyrazolo[3,4-b]pyridine] |
| 9 | 1 | Cc1nc(-c2c(-c3ccc(F)cc3)nn3c2CC[C@]2(C3)CC2(F)F)c2cn[nH]c2n1 (single isomer, unassigned) [Example 336, (*R)-2,2-Difluoro-2′-(4-fluorophenyl)-3′-(6-methyl-1H-pyrazolo[3,4-d]pyrimidin-4-yl)-4′,5′-dihydro-7′H-spiro[cyclopropane-1,6′-pyrazolo[1,5-a]pyridine]] |
| 1070 | 36 | Fc1ccc(-c2nn3c(c2-c2ccnc4[nH]ncc24)CO[C@@H](C2CCC2)C3)nc1 (single isomer, unassigned) [Example 111, (*S)-6-Cyclobutyl-2-(5-fluoropyridin-2-yl)-3-(1H-pyrazolo[3,4-b]pyridin-4-yl)-6,7-dihydro-4H-pyrazolo[5,1-c][1,4]oxazine] |
| 125 | 3 | COC[C@@]1(C)CCc2c(-c3cc(C)nc4[nH]ncc34)c(-c3ccc(F)cn3)nn2C1 (single isomer, unassigned) [Example 55, (*S)-4-(2-(5-Fluoropyridin-2-yl)-6-(methoxymethyl)-6-methyl-4,5,6,7-tetrahydropyrazolo[1,5-a]pyridin-3-yl)-6-methyl-1H-pyrazolo[3,4-b]pyridine] |
| 34 | 3 | [2H]C([2H])([2H])OC[C@]1(F)CCc2c(-c3cc(C)nc4[nH]ncc34)c(-c3ccc(F)cn3)nn2C1 (single isomer, unassigned) [Example 310, (*S)-4-(6-Fluoro-2-(5-fluoropyridin-2-yl)-6-((methoxy-d3)methyl)-4,5,6,7-tetrahydropyrazolo[1,5-a]pyridin-3-yl)-6-methyl-1H-pyrazolo[3,4-b]pyridine] |
